Source: US20200123127A1, “REMOVAL OF SENESCENCE-ASSOCIATED MACROPHAGES” (EVERON BIOSCIENCES, INC., priority 2016, published 2020)
Where two headings read alike, the source gives them in different places.

Experiments:
[1] = tested on: AdMSC primary adipose-derived mesenchymal stromal cells; experiment: Anti-senescent cytotoxicity, senescent vs proliferating AdMSC; assay type: cell-based, Human; details: for IC50: Homo sapiens
[2] = tested on: RWPE-1 normal prostate epithelial cells; experiment: dnPTEN-induced senescence model in RWPE-1 cells (SA-beta-Gal and methylene blue staining); assay type: cell-based; details: 10 uM for 72 hours
Method: FIG. 3. Activity of A1.1 and analog A1.12 in a model of dnPTEN-induced senescence in RWPE-1 normal prostate epithelial cells. A population of transduced RWPE-1 cells containing doxycycline-inducible dnPTEN was senesced via 1 ug/ml doxycycline for 7 days. Cells which bypass senescence continued to proliferate to form a confluent monolayer. The mixed population of senescent and proliferating cells was treated with A1.1 and A1.12 at 10 uM for 72 hours. SA-beta-Gal staining was used to monitor the amount of senescent cells of treatment groups compared to non-treated control. In addition, methylene blue was used to quantitate overall cell mass, which was comprised mostly of the non-senescent, proliferating cells. Treatment with the anti-senescent compounds led to a substantial decrease in SA-beta-Gal staining, while the amount of methylene blue staining was less affected.
Senescent cells are strongly associated with benign prostate hyperplasia (BPH) and the development of prostate cancer [Vital, P. et al. (2014) The Senescence-Associated Secretory Phenotype Promotes Benign Prostatic Hyperplasia. Am J Pathol, 184(3): 721-731; Burton, D. et al. (2013). Androgen Deprivation-Induced Senescence Promoted Outgrowth of Anderogen-Refractory Protstate Cancer Cells. PLOS One, 8(6):e68003]. […] We sought to evaluate the efficacy of our compounds in a model of RWPE-1 normal prostate epithelial cells transduced with a construct for inducible loss of PTEN function [doxycycline-inducible expression of a dominant-negative PTEN (dnPTEN) mutant]. In the presence of doxycycline, a fraction of the population of transduced cells became senescent, while cells bypassing senescence continued to grow until a confluent monolayer was formed.

[3] = tested on: B16 cells; experiment: In vitro growth and viability of B16 cells (resazurin); assay type: cell-based; details: 72 hour exposure, up to 20 uM
Excerpt: FIG. 4. Efficacy of A1.1 analogs in the senescence-enhanced B16 metastasis model. (A) Quantification of metastatic nodules by H&E morphometric analysis, and the resulting reduction in tumor burden (%) compared to vehicle control. (B) Quantitation morphometric analysis of lungs excised from irradiated mice treated with analogs of A1.1 post-inoculation of B16 cell intravenously, along with quantitation of morphometric analysis, are provided. (C) In vitro testing of A1.1 and analogs against the growth and viability of B16 cells, as assessed by the resazurin viability assay after 72 hour exposure to compounds compared to non-treated controls.
The role of senescent cells in the promotion of metastatic potential of cancer cells has also been described [Patent WO 2013090645 A1; Campisi, J. (2015). Cancer and Aging: Rival Demons]. […] To test the efficacy of A1.1, irradiated (11 Gy followed by bone-marrow transplantation) and non-irradiated C57BL/6 mice received B16 melanoma cells via tail vein injection were subsequently (72 hours later) administered A1.1 (20 mg/kg) intraperitoneally once a day for 5 consecutive days.
Synthesized analogs were also tested in vivo, to assess whether optimized structures are capable of showing activity against senescence-mediated B16 lung metastasis in irradiated mice (FIG. 4B). […]

## CCOC(=O)c1sc(SCc2ccccc2)c2c1CC(c1ccc(OC)cc1)C/C2=N\O (stereo not drawn) [Example A1.1]
[1]; AdMSC, Bleomycin
  Selectivity (Prolif/Sen): 2.3
[1]; AdMSC proliferating, read-out: Activity against Proliferating Cells (IC50; uM)
  IC50: 12.6 µM
[1]; AdMSC, senescence induction: Bleomycin, read-out: Activity against Senescent Cells (IC50; uM)
  IC50: 5.6 µM
[2]
  proliferating cells / overall cell mass (methylene blue staining): inhibit growth of proliferating cells
[2]; dnPTEN-induced senescence
  senescent cells (number of SA-β-Gal-positive cells): selective elimination of senescent cells
[3]
  B16 growth in vitro: did not inhibit
